Assay results as given in patent US20070264241A1, “Compounds for Enhanced Cancer Therapy” (priority 2004, published 2007).
Entries after “also recorded” stand apart in the source; their conditions may differ.

Assays:
[1] = system: U87MG/tomato kinase positive cells; assay: Synergistic cell killing effect of AZT and 4-PB; type: cell-based, human; conditions: 72 hours
Procedure: Medium was replaced by 300 μL of MTT solution (0.5mg/mL; Sigma # M 2128) per well and incubated at 37° C. for 30 minutes. The MTT solution was aspirated and 350 μL of isopropranol was added to dissolve the formazan product by gentle shaking. Three 100 μL aliquots of formazan solution from each well were pipetted into a 96-well microplate. Optical density was measured by Multiscan RMCC/340 plate reader (MicroELISA Reader) at 570 nm with reference at 650 nm. The results were expressed as percentage of live cells compared to control untreated cells (100%). The analyses were run as three independent experiments.

[2] = system: gap junction communication between HNSC100 neural stem cells and glioblastoma cells; assay: Fluorescent dye transfer between neural stem cells and glioma cells; type: cell-based, human; conditions: pre-treatment 48 hours with 4-PB, 0.5 mM (stem cells) and 2 mM (glioblastoma cells)
Procedure: Donor human neural stem cells (1×10^5 HNSC100) and recipient human glioblastoma cells (1×10^5 U343MGa) cells were plated each in 4 separate 35 mm petri dishes. […] Donor cells were incubated with 10 μM Dil (a fluorescent lipophilic carbocyanine tracer; Molecular Probes) and 5 μM Calcein-AM (an acetoxymethyl ester derivative; Molecular Probes) for 20 min in complete medium. Cells were washed three times with culture medium and twice with PBS to remove free dye. After trypsinization, cells were pelleted by centrifugation and resuspended in co-culture medium. Donor cells 50% confluent were added to the plate of recipient cells. AGA treatment, when performed, was always continued throughout the experiment. Assessment of functional GJC by Calcein dye transfer from donor to recipient cells was carried out after 4 hours using an Olympus BX50WI microscope.

U87MG cells = assay: XTT cytotoxicity assay of phenylbutyrate and of nucleoside analogues with or without phenylbutyrate pre-incubation; type: cell-based, human; conditions: 4-phenylbutyrate cytotoxicity assay, incubation 24 hours; read-out: IC50 U87MG (phenylbutyrate alone)
Procedure: Briefly, cells were harvested by trypsinzation, stained by Tryphan Blue for cell viability counting, seeded in triplicate in 96-well plates (1.000-2.000 cells/well) where after media conditioned with a fixed concentration of phenyl butyrate (3.16 mM) were added to the plates followed by incubation for 24 hours at 37° C. and 5% CO2. Cell proliferation/cytotoxicity was assessed by adding the colour generating substrates of the Cell Proliferation kit II (XTT) from Roche (Cat. No. 1465015) and measuring absorbance at 450 nm and 690 nm with a Thermo Labsystems Multiscan Ascent reader.
(§1) Cells were seeded at a density of 1.000-2.000 cells/well in 96-well plates. Cells were pre-incubated with 4-phenyl butyrate for 24 hours prior to drug exposure by adding media conditioned with phenyl butyrate at a fixed concentration (3.16 mM). Plated incubated for 24 hours (37° C., 5% CO2) where after media was discarded and replaced by media conditioned with various concentrations of nucleoside analogs (e.g. AZT), 200 μl/well. After 120 hours of drug exposure the experiments were terminated. Cell proliferation/cytotoxicity was assessed by adding the colour generating substrates of the Cell Proliferation kit II (XTT) from Roche (Cat. No. 1465015) and measuring absorbance at 450 nm and 690 nm with a Thermo Labsystems Multiscan Ascent reader.
The data was corrected for background media-only absorbance where after the 50% growth inhibitory concentration—IC50 (the dose that inhibits cell growth by 50%) was calculated for each treatment.
Briefly, cells were harvested by trypsinzation, stained by Tryphan Blue (Cambrex) for cell viability counting, seeded in triplicate in poly-L-lysine (PLL) (Sigma # P6282) coated 96-well plates (1.000-2.000 cells/well) where after media conditioned with a fixed concentration of phenyl butyrate (3.16 mM) was added to the plates followed by incubation for 24 hours at 37° C. and 5% CO2. Cell proliferation/cytotoxicity was assessed by adding the colour generating substrates of the
as §1, with “cells/well in PLL coated 96-well plates.” for “cells/well in 96-well plates.”, “of nucleoside analogs; AZT (Sigma # A2169), AraC (Sigma # C6645), Cladribine (CdA) (Sigma #C4438), Gancidovir (GCV) (Sigma # G2536) and Gemcitabine (Orifarm), 200 μl/well.” for “of nucleoside analogs (e.g. AZT), 200 μl/well.”, “Ascent reader. he data was corrected for background media-only absorbance where after the 50% growth inhibitory concentration—IC50 (the dose that inhibits cell growth by 50%) was calculated for ach treatment.” for “Ascent reader.”

[3] = system: Cx43 in human neural stem cells (HNSC.100); assay: Western blot analysis for Cx43 in neural stem cells; type: cell-based; conditions: 0.5 mM 4-PB, up to 4 days
Procedure: Human neural stem cells (HNSC.100 cells, Villa et al Exp Neurol, 2000, 161(1):67-84) were obtained from Alberto Martinez Serrano, Department of Molecular Biology, Center of Molecular Biology Severo Ochoa, Autonomous University of Madrid-CSIC, Campus Cantoblanco, Madrid, 28049, Spain. Neural stem cells were grown to around 50% confluence and then 0.5 mM 4-PB treatment was started and continued for 4 days. Medium was replaced every 2nd day with fresh drug. Whole-cell lysates from three 100 mm petri dishes were solubilized in 100 μl of lysis buffer containing 250 mM Tris-HCl (pH 8.5), 2% SDS, 10% glycerol, 0.05 mM PMSF and protease inhibitor cocktail (Roche). Protein concentrations were quantified using the micro BSA protein assay kit (Pierce). Cell lysates were further mixed with loading buffer containing 1% β-mercaptoethanol, 0.02% bromophenol blue, and 0.1 M DTT. […] For quantification, films were scanned and analyzed with Image Gauge (Version 3.12, Fuji Photo Film Corp.). All results are expressed as means ± SE for the indicated number of experiments (FIG. 13). […] As the bands of protein became visible, the membranes were washed several times and total amount of loaded protein was quantified using computerized densitometric analysis.

4-phenylbutyrate [4-PB]
combination effect on cell killing ([1]; 15 μM AZT and 0.5 mM 4-PB): clear additive or synergistic effects
effect of 4-PB on cell killing by AZT ([1]; 15 μM AZT, 4-PB 0.5-8 mM): enhanced the effects of AZT
dye transfer from neural stem cells to glioblastoma cells [2]: can induce such gap junction communication; also recorded: substantially enhanced
IC50 (U87MG cells): 4.14 mM
level of Cx43 protein (Western blot) [3]: increased; also recorded: upregulated
